The values below come from patent publication US9346786B2, “Pyrrolidine compounds” (Hoffmann-La Roche Inc., priority 2009, dated 2016).

The target in one assay is recombinant human NK3 receptor (Homo sapiens (Human), UniProt P29371). Put plainly: biochemical. In kind it is binding.
Sequence of recombinant human NK3 receptor (P29371 whole entry): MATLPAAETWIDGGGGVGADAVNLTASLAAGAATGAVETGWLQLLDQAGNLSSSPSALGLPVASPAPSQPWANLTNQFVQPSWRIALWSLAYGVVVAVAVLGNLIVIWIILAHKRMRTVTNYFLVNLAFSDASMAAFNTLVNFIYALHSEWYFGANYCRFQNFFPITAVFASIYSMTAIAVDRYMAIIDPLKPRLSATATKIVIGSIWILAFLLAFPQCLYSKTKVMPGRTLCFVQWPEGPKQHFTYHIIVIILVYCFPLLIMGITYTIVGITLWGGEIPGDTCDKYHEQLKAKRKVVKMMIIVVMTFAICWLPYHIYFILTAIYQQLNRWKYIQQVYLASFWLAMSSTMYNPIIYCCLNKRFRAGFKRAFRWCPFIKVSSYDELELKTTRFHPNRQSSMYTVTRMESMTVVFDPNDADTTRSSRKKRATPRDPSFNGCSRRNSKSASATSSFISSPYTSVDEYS
Settings: not given
What is called Ki is the equilibrium dissociation constant of an inhibitor or competing ligand from its target. Turning to `CCN(C(=O)Oc1ccc(F)cc1)[C@@H]1CN(C(=O)C2CCN(c3ccc(C(N)=O)cn3)CC2)C[C@H]1c1ccc(Cl)c(F)c1` [Example 109, [(3S,4R)-1-(5′-Carbamoyl-3,4,5,6-tetrahydro-2H-[1,2′]bipyridinyl-4-carbonyl)-4-(4-chloro-3-fluoro-phenyl)-pyrrolidin-3-yl]-ethyl-carbamic acid 4-fluoro-phenyl ester], the Ki amounted to 1.7 nM.

The assay is the same for the next values; noted with them: [3H]SR142801, membranes of HEK293 cells transiently expressing recombinant human NK3 receptor; read-out: Data Ki (hNK-3 receptor affinity).
In the case of `CCN(C(=O)Oc1ccc(F)cc1)[C@@H]1CN(C(=O)C2CCC(=O)N(C(C)C)C2)C[C@H]1c1ccc(Cl)c(F)c1` (stereo partly drawn) [Example 105, [(3S,4R)-4-(4-Chloro-3-fluoro-phenyl)-1-(1-isopropyl-6-oxo-piperidine-3-carbonyl)-pyrrolidin-3-yl]-ethyl-carbamic acid 4-fluoro-phenyl ester], the Ki worked out at 31.2 nM.
`CCN(C(=O)Oc1ccc(F)cc1)[C@@H]1CN(C(=O)C2CCN(C(=O)[C@@H]3CC(=O)N3)CC2)C[C@H]1c1ccc(F)c(F)c1` [Example 106, {(3S,4R)-4-(3,4-Difluoro-phenyl)-1-[1-((S)-4-oxo-azetidine-2-carbonyl)-piperidine-4-carbonyl]-pyrrolidin-3-yl}-ethyl-carbamic acid 4-fluoro-phenyl ester]: the Ki is 66 nM.
Still for that read-out and setting: the same measure for `CCN(C(=O)Oc1ccc(F)cc1)[C@@H]1CN(C(=O)C2CCN(C(=O)C3CCC(=O)NC3)CC2)C[C@H]1c1ccc(F)c(F)c1` (stereo partly drawn) [Example 107, {(3S,4R)-4-(3,4-Difluoro-phenyl)-1-[1-(6-oxo-piperidine-3-carbonyl)-piperidine-4-carbonyl]-pyrrolidin-3-yl}-ethyl-carbamic acid 4-fluoro-phenyl ester]: 131 nM; for `CCN(C(=O)Oc1ccc(F)cc1)[C@@H]1CN(C(=O)C2CCN(c3ccc(Cl)cn3)CC2)C[C@H]1c1ccc(Cl)cc1` [Example 110, [(3S,4R)-4-(4-Chloro-phenyl)-1-(5′-chloro-3,4,5,6-tetrahydro-2H-[1,2′]bipyridinyl-4-carbonyl)-pyrrolidin-3-yl]-ethyl-carbamic acid 4-fluoro-phenyl ester]: 4.8 nM.
Still for that read-out and setting: with `CCN(C(=O)Oc1ccc(F)cc1)[C@@H]1CN(C(=O)C2CCN(c3ccc(C(N)=O)cn3)CC2)C[C@H]1c1ccc(Cl)cc1` [Example 111, [(3S,4R)-1-(5′-Carbamoyl-3,4,5,6-tetrahydro-2H-[1,2′]bipyridinyl-4-carbonyl)-4-(4-chloro-phenyl)-pyrrolidin-3-yl]-ethyl-carbamic acid 4-fluoro-phenyl ester] the figure was 7.4 nM.
On the same count and under the same terms, with `CCN(C(=O)Oc1ccc(F)cc1)[C@@H]1CN(C(=O)C2CCN(c3ccc(Cl)cn3)CC2)C[C@H]1c1ccc(Cl)c(Cl)c1` [Example 113, [(3S,4R)-1-(5′-Chloro-3,4,5,6-tetrahydro-2H-[1,2′]bipyridinyl-4-carbonyl)-4-(3,4-dichloro-phenyl)-pyrrolidin-3-yl]-ethyl-carbamic acid 4-fluoro-phenyl ester] the figure was 0.5 nM; with `CCN(C(=O)Oc1ccc(F)cc1)[C@@H]1CN(C(=O)C2CCN(c3ccc(C(F)(F)F)cn3)CC2)C[C@H]1c1ccc(Cl)c(Cl)c1` [Example 114, [(3S,4R)-4-(3,4-Dichloro-phenyl)-1-(5′-trifluoromethyl-3,4,5,6-tetrahydro-2H-[1,2′]bipyridinyl-4-carbonyl)-pyrrolidin-3-yl]-ethyl-carbamic acid 4-fluoro-phenyl ester], 1.6 nM; with `CCN(C(=O)Oc1ccc(F)cc1)[C@@H]1CN(C(=O)C2CCN(c3ccc(C(N)=O)cn3)CC2)C[C@H]1c1ccc(Cl)c(Cl)c1` [Example 115, [(3S,4R)-1-(5′-Carbamoyl-3,4,5,6-tetrahydro-2H-[1,2′]bipyridinyl-4-carbonyl)-4-(3,4-dichloro-phenyl)-pyrrolidin-3-yl]-ethyl-carbamic acid 4-fluoro-phenyl ester], 0.9 nM.
Take `CCN(C(=O)Oc1ccc(F)cc1)[C@@H]1CN(C(=O)C2CCN(c3ccc(C(C)=O)cn3)CC2)C[C@H]1c1ccc(Cl)c(Cl)c1` [Example 116, [(3S,4R)-1-(5′-Acetyl-3,4,5,6-tetrahydro-2H-[1,2′]bipyridinyl-4-carbonyl)-4-(3,4-dichloro-phenyl)-pyrrolidin-3-yl]-ethyl-carbamic acid 4-fluoro-phenyl ester]: the Ki came to 0.5 nM.
Still for that read-out and setting: with `CCN(C(=O)Oc1ccc(F)cc1)[C@@H]1CN(C(=O)C2CCN(c3ccc(F)cn3)CC2)C[C@H]1c1ccc(F)c(Cl)c1` [Example 117, [(3S,4R)-4-(3-Chloro-4-fluoro-phenyl)-1-(5′-fluoro-3,4,5,6-tetrahydro-2H-[1,2′]bipyridinyl-4-carbonyl)-pyrrolidin-3-yl]-ethyl-carbamic acid 4-fluoro-phenyl ester] the figure was 3.3 nM; with `CCN(C(=O)Oc1ccc(F)cc1)[C@@H]1CN(C(=O)C2CCN(c3ccc(Cl)cn3)CC2)C[C@H]1c1ccc(F)c(Cl)c1` [Example 118, [(3S,4R)-4-(3-Chloro-4-fluoro-phenyl)-1-(5′-chloro-3,4,5,6-tetrahydro-2H-[1,2′]bipyridinyl-4-carbonyl)-pyrrolidin-3-yl]-ethyl-carbamic acid 4-fluoro-phenyl ester], 1.8 nM; with `CCN(C(=O)Oc1ccc(F)cc1)[C@@H]1CN(C(=O)C2CCN(c3ccc(C(C)=O)cn3)CC2)C[C@H]1c1ccc(F)c(Cl)c1` [Example 120, [(3S,4R)-1-(5′-Acetyl-3,4,5,6-tetrahydro-2H-[1,2′]bipyridinyl-4-carbonyl)-4-(3-chloro-4-fluoro-phenyl)-pyrrolidin-3-yl]-ethyl-carbamic acid 4-fluoro-phenyl ester], 1.7 nM.
The same measure, in the same setting: with `CCN(C(=O)Oc1ccc(F)cc1)[C@@H]1CN(C(=O)C2CCN(C(=O)[C@@H]3CC(=O)N3)CC2)C[C@H]1c1ccc(Cl)cc1` [Example 121, {(3S,4R)-4-(4-Chloro-phenyl)-1-[1-((S)-4-oxo-azetidine-2-carbonyl)-piperidine-4-carbonyl]-pyrrolidin-3-yl}-ethyl-carbamic acid 4-fluoro-phenyl ester] the figure was 16.9 nM; with `CCN(CC)CC(=O)c1ccc(N2CCC(C(=O)N3C[C@@H](N(CC)C(=O)Oc4ccc(F)cc4)[C@H](c4ccc(F)cc4)C3)CC2)nc1` [Example 122, [(3S,4R)-1-[5′-(2-Diethylamino-acetyl)-3,4,5,6-tetrahydro-2H-[1,2′]bipyridinyl-4-carbonyl]-4-(4-fluoro-phenyl)-pyrrolidin-3-yl]-ethyl-carbamic acid 4-fluoro-phenyl ester], 69.6 nM.

Staying with this assay, now noted: read-out: Data Ki (hNK-3 receptor affinity).
As for `CCN(C(=O)Oc1ccc(F)cc1)[C@@H]1CN(C(=O)C2CCN(C(=O)C3CCC(=O)N(C(C)C)C3)CC2)C[C@H]1c1ccc(Cl)cc1` (stereo partly drawn) [Example 104, {(3S,4R)-4-(4-Chloro-phenyl)-1-[1-(1-isopropyl-6-oxo-piperidine-3-carbonyl)-piperidine-4-carbonyl]-pyrrolidin-3-yl}-ethyl-carbamic acid 4-fluoro-phenyl ester], the Ki was found to be 17.6 nM.
Same read-out and setting: the same measure for `CCN(C(=O)Oc1ccc(F)cc1)[C@@H]1CN(C(=O)C2CCN(c3ccc(C(C)O)cn3)CC2)C[C@H]1c1ccc(Cl)cc1` (stereo partly drawn) [Example 108, {(3S,4R)-4-(4-Chloro-phenyl)-1-[5′-(1-hydroxy-ethyl)-3,4,5,6-tetrahydro-2H-[1,2]bipyridinyl-4-carbonyl]-pyrrolidin-3-yl}-ethyl-carbamic acid 4-fluoro-phenyl ester]: 4.7 nM.
`CCN(C(=O)Oc1ccc(F)cc1)[C@@H]1CN(C(=O)C2CCN(c3ccc(F)cn3)CC2)C[C@H]1c1ccc(Cl)c(Cl)c1` [Example 112, [(3S,4R)-4-(3,4-Dichloro-phenyl)-1-(5′-fluoro-3,4,5,6-tetrahydro-2H-[1,2′]bipyridinyl-4-carbonyl)-pyrrolidin-3-yl]-ethyl-carbamic acid 4-fluoro-phenyl ester]: the Ki came to 0.8 nM.
For `CCN(C(=O)Oc1ccc(F)cc1)[C@@H]1CN(C(=O)C2CCN(c3ccc(C(F)(F)F)cn3)CC2)C[C@H]1c1ccc(F)c(Cl)c1` [Example 119, [(3S,4R)-4-(3-Chloro-4-fluoro-phenyl)-1-(5′-trifluoromethyl-3,4,5,6-tetrahydro-2H-[1,2′]bipyridinyl-4-carbonyl)-pyrrolidin-3-yl]-ethyl-carbamic acid 4-fluoro-phenyl ester], the Ki was found to be 3.7 nM.

Test system in a further assay: not given
Test: not given
Conditions: phase II trial; cited from earlier work.
On to `CC(=O)N(C)C1(c2ccccc2)CCN(CCC[C@]2(c3ccc(Cl)c(Cl)c3)CCCN(C(=O)c3ccccc3)C2)CC1` [SR 142,801, Osanetant], for which the “activity on negative symptoms of schizophrenia” value is “inactive in the treatment of negative symptoms” and the “activity on positive symptoms of schizophrenia” value was “active on positive symptoms of schizophrenia”.
